How the values were obtained:
Details in all cases: exposure time: 72 h
[1] = test system: E31 (patient-derived glioblastoma stem cells of proneural subtype); assay: phenotypic distance (Euclidean, principal components) from DMSO controls (arbitrary units); higher = stronger morphological change
[2] = test system: E57 (patient-derived glioblastoma stem cells of mesenchymal subtype); assay: as above
[3] = test system: E21 (patient-derived glioblastoma stem cells of mesenchymal subtype); assay: as above
[4] = test system: E34 (patient-derived glioblastoma stem cells of proneural subtype); assay: as above
[5] = test system: E28 (patient-derived glioblastoma stem cells of classical subtype); assay: as above
[6] = test system: E13 (patient-derived glioblastoma stem cells of classical subtype); assay: as above
[7] = test system: FT3469 (normal neural stem cell line); assay: as above
[8] = test system: E31; assay: surviving fraction (nuclei count normalised to DMSO); higher = more cells surviving (less toxic)
[9] = test system: E57; assay: as above
[10] = test system: E21; assay: as above
[11] = test system: E34; assay: as above
[12] = test system: E28; assay: as above
[13] = test system: E13; assay: as above
[14] = test system: FT3469; assay: as above
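For phenotypic distance (Euclidean, principal components) from DMSO controls in this document: cell Painting imaging in 384-well plates, CellProfiler features reduced to at least 20 principal components, Euclidean distance versus same-plate DMSO vehicle wells (0.1% v/v), median over six images per well.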
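For surviving fraction (nuclei count normalised to DMSO) in this document: nuclei counted by high-content imaging of Hoechst-stained cells in laminin-coated 384-well plates, relative to 0.1% DMSO vehicle wells, with staurosporine as cell-death control.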

O=C1c2c(O)ccc(O)c2C(=O)c2c(NCCNCCO)ccc(NCCNCCO)c21 [Mitoxantrone]
Details	phenotypic distance	surviving fraction
[1], 4.1 nM	2.71	–
[1], 12.3 nM	3.14	–
[1], 37 nM	2.43	–
[1], 111.1 nM	2.42	–
[1], 333.3 nM	2.72	–
[1], 1000 nM	4.39	–
[1], 3000 nM	4.07	–
[2], 4.1 nM	8.68	–
[2], 12.3 nM	9.84	–
[2], 37 nM	8.24	–
[2], 111.1 nM	6.95	–
[2], 333.3 nM	7.05	–
[2], 1000 nM	7.26	–
[2], 3000 nM	6.66	–
[3], 4.1 nM	2.94	–
[3], 12.3 nM	4.27	–
[3], 37 nM	6.11	–
[3], 111.1 nM	6.48	–
[3], 333.3 nM	6.79	–
[3], 1000 nM	6.1	–
[3], 3000 nM	5.74	–
[4], 4.1 nM	4.38	–
[4], 12.3 nM	4.62	–
[4], 37 nM	4.33	–
[4], 111.1 nM	2.84	–
[4], 333.3 nM	2.54	–
[4], 1000 nM	1.99	–
[4], 3000 nM	2.83	–
[5], 4.1 nM	3.3	–
[5], 12.3 nM	3.24	–
[5], 37 nM	3.23	–
[5], 111.1 nM	3.7	–
[5], 333.3 nM	3.72	–
[5], 1000 nM	3.17	–
[5], 3000 nM	2.86	–
[6], 4.1 nM	4.74	–
[6], 12.3 nM	5.62	–
[6], 37 nM	6.07	–
[6], 111.1 nM	6.02	–
[6], 333.3 nM	6.18	–
[6], 1000 nM	6.49	–
[6], 3000 nM	6.08	–
[7], 4.1 nM	1.61	–
[7], 12.3 nM	1.65	–
[7], 37 nM	1.7	–
[7], 111.1 nM	1.36	–
[7], 333.3 nM	1.3	–
[7], 1000 nM	2.01	–
[7], 3000 nM	3.46	–
[8], 4.1 nM	–	0.243
[8], 12.3 nM	–	0.219
[8], 37 nM	–	0.311
[8], 111.1 nM	–	0.216
[8], 333.3 nM	–	0.218
[8], 1000 nM	–	0.127
[8], 3000 nM	–	0.142
[9], 4.1 nM	–	0.245
[9], 12.3 nM	–	0.2
[9], 37 nM	–	0.174
[9], 111.1 nM	–	0.165
[9], 333.3 nM	–	0.161
[9], 1000 nM	–	0.159
[9], 3000 nM	–	0.17
[10], 4.1 nM	–	0.689
[10], 12.3 nM	–	0.608
[10], 37 nM	–	0.448
[10], 111.1 nM	–	0.229
[10], 333.3 nM	–	0.207
[10], 1000 nM	–	0.209
[10], 3000 nM	–	0.189
[11], 4.1 nM	–	0.578
[11], 12.3 nM	–	0.494
[11], 37 nM	–	0.578
[11], 111.1 nM	–	0.615
[11], 333.3 nM	–	0.547
[11], 1000 nM	–	0.564
[11], 3000 nM	–	0.56
[12], 4.1 nM	–	0.476
[12], 12.3 nM	–	0.359
[12], 37 nM	–	0.358
[12], 111.1 nM	–	0.262
[12], 333.3 nM	–	0.313
[12], 1000 nM	–	0.286
[12], 3000 nM	–	0.264
[13], 4.1 nM	–	0.526
[13], 12.3 nM	–	0.451
[13], 37 nM	–	0.422
[13], 111.1 nM	–	0.338
[13], 333.3 nM	–	0.279
[13], 1000 nM	–	0.23
[13], 3000 nM	–	0.219
[14], 4.1 nM	–	0.595
[14], 12.3 nM	–	0.645
[14], 37 nM	–	0.657
[14], 111.1 nM	–	0.604
[14], 333.3 nM	–	0.639
[14], 1000 nM	–	0.604
[14], 3000 nM	–	0.362
